Test results: PubChem BioAssay AID1963422 (Molecular Pharmacology Branch, DTP, NCI, 2024)

System: 463943-066-T-J2-PDC complex spheroid growth
Assay: Anticancer human tumor 463943-066-T-J2-PDC patient-derived colon adenocarcinoma cell line growth inhibition [Asc]
Conditions: for IC50: curve of first compound; for viability, T/C: stronger effect = lower value
In short: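 Stromal components (HUVEC and hMSC) are co-assembled with the cancer cells into multicellular spheroids. Drugs are then added singly or paired, at concentrations falling by half-log increments from a clinically achievable maximum, capped at 10 microM without known Cmax.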

[1] = second compound 0.0316 µM, first compound 0.0316 µM
[2] = second compound 0.0316 µM, first compound 0.1 µM
[3] = second compound 0.0316 µM, first compound 0.316 µM
[4] = second compound 0.0316 µM, first compound 1 µM
[5] = second compound 0.1 µM, first compound 0.0316 µM
[6] = second compound 0.1 µM, first compound 0.1 µM
[7] = second compound 0.1 µM, first compound 0.316 µM
[8] = second compound 0.1 µM, first compound 1 µM
[9] = second compound 0.316 µM, first compound 0.0316 µM
[10] = second compound 0.316 µM, first compound 0.1 µM
[11] = second compound 0.316 µM, first compound 0.316 µM
[12] = second compound 0.316 µM, first compound 1 µM
[13] = second compound 1 µM, first compound 0.0316 µM
[14] = second compound 1 µM, first compound 0.1 µM
[15] = second compound 1 µM, first compound 0.316 µM
[16] = second compound 1 µM, first compound 1 µM
[17] = second compound 3.16 µM, first compound 0.0316 µM
[18] = second compound 3.16 µM, first compound 0.1 µM
[19] = second compound 3.16 µM, first compound 0.316 µM
[20] = second compound 3.16 µM, first compound 1 µM
[21] = second compound 10 µM, first compound 0.0316 µM
[22] = second compound 10 µM, first compound 0.1 µM
[23] = second compound 10 µM, first compound 0.316 µM
[24] = second compound 10 µM, first compound 1 µM
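Note: compound exposure lasted 7 days.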
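Throughout, for viability, T/C: 100% = DMSO vehicle control wells.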

`C#Cc1c(F)ccc2cc(O)cc(-c3ncc4c(N5CC6CCC(C5)N6)nc(OCC56CCCN5CC(F)C6)nc4c3F)c12` (centres undefined) + Cc1c(S(C)(=O)=O)c(-c2cc(F)cc(N3CCN(c4ccc(NS(=O)(=O)c5ccc(NC(CCN6CCC(C(=O)OCCCP(=O)(O)O)CC6)CSc6ccccc6)c(S(=O)(=O)C(F)(F)F)c5)cc4)CC3)c2)c(-c2ccc(Cl)cc2)n1C(C)C was tested, and the IC50 (second compound 0.0316 µM) was > 10000 nM, the IC50 (second compound 0.1 µM) was > 10000 nM and the IC50 (second compound 0.316 µM) was > 10000 nM. For the same molecule, the IC50 (second compound 1 µM) was > 10000 nM, the IC50 (second compound 3.16 µM) was > 10000 nM and the IC50 (second compound 10 µM) was < 31.6 nM. It also gave a viability, T/C [1] of 96.3%, a viability, T/C [2] of 93.3% and a viability, T/C [3] of 101%. For the same molecule, the viability, T/C [4] was 102%, the viability, T/C (second compound 0.0316 µM, first compound 3.16 µM) was 103% and the viability, T/C (second compound 0.0316 µM, first compound 10 µM) was 97.5%. For the same molecule, the viability, T/C [5] was 101%, the viability, T/C [6] was 97.1% and the viability, T/C [7] was 101%. For the same molecule, the viability, T/C [8] was 94.1%, the viability, T/C (second compound 0.1 µM, first compound 3.16 µM) was 98% and the viability, T/C (second compound 0.1 µM, first compound 10 µM) was 82.1%. It also gave a viability, T/C [9] of 93.4%, a viability, T/C [10] of 92.8% and a viability, T/C [11] of 88.4%. The viability, T/C [12] was 93.1%, the viability, T/C (second compound 0.316 µM, first compound 3.16 µM) was 97.2% and the viability, T/C (second compound 0.316 µM, first compound 10 µM) was 73.4%. The viability, T/C [13] was 74.5%, the viability, T/C [14] was 76.5% and the viability, T/C [15] was 80.5%. The viability, T/C [16] was 80.6%, the viability, T/C (second compound 1 µM, first compound 3.16 µM) was 77.7% and the viability, T/C (second compound 1 µM, first compound 10 µM) was 72.3%. The viability, T/C [17] was 65.3%, the viability, T/C [18] was 64.3% and the viability, T/C [19] was 63.3%. For the same molecule, the viability, T/C [20] was 62.1%, the viability, T/C (second compound 3.16 µM, first compound 3.16 µM) was 65.9% and the viability, T/C (second compound 3.16 µM, first compound 10 µM) was 61.3%. The viability, T/C [21] was 48.9%, the viability, T/C [22] was 47.7% and the viability, T/C [23] was 50.2%. For the same molecule, the viability, T/C [24] was 51.2%, the viability, T/C (second compound 10 µM, first compound 3.16 µM) was 51.2% and the viability, T/C (second compound 10 µM, first compound 10 µM) was 43.9%.

In the case of `CNC(C)C(=O)NC1CN(S(=O)(=O)c2cccc(S(=O)(=O)N3CCC4CCC(C(=O)NC(c5ccccc5)c5ccccc5)N4C(=O)C(NC(=O)C(C)NC)C3)c2)CCC2CCC(C(=O)NC(c3ccccc3)c3ccccc3)N2C1=O` (centres undefined) + Cc1c(S(C)(=O)=O)c(-c2cc(F)cc(N3CCN(c4ccc(NS(=O)(=O)c5ccc(NC(CCN6CCC(C(=O)OCCCP(=O)(O)O)CC6)CSc6ccccc6)c(S(=O)(=O)C(F)(F)F)c5)cc4)CC3)c2)c(-c2ccc(Cl)cc2)n1C(C)C, the IC50 (second compound 0.0316 µM) is reported as > 1000 nM, the IC50 (second compound 0.1 µM) is reported as > 1000 nM and the IC50 (second compound 0.316 µM) is reported as > 1000 nM. For the same molecule, the IC50 (second compound 1 µM) was > 1000 nM, the IC50 (second compound 3.16 µM) was > 1000 nM and the IC50 (second compound 10 µM) was 368 nM. The viability, T/C (second compound 0.0316 µM, first compound 0.00316 µM) was 99.7%, the viability, T/C (second compound 0.0316 µM, first compound 0.01 µM) was 97.5% and the viability, T/C [1] was 97.2%. It also gave a viability, T/C [2] of 99.9%, a viability, T/C [3] of 97.6% and a viability, T/C [4] of 80.7%. The viability, T/C (second compound 0.1 µM, first compound 0.00316 µM) was 100%, the viability, T/C (second compound 0.1 µM, first compound 0.01 µM) was 91.6% and the viability, T/C [5] was 96.6%. For the same molecule, the viability, T/C [6] was 94.4%, the viability, T/C [7] was 98.8% and the viability, T/C [8] was 74%. For the same molecule, the viability, T/C (second compound 0.316 µM, first compound 0.00316 µM) was 88.6%, the viability, T/C (second compound 0.316 µM, first compound 0.01 µM) was 89.3% and the viability, T/C [9] was 88.2%. For the same molecule, the viability, T/C [10] was 87.4%, the viability, T/C [11] was 93.2% and the viability, T/C [12] was 70.6%. The viability, T/C (second compound 1 µM, first compound 0.00316 µM) was 82.8%, the viability, T/C (second compound 1 µM, first compound 0.01 µM) was 77% and the viability, T/C [13] was 77.8%. It also gave a viability, T/C [14] of 83.8%, a viability, T/C [15] of 76.8% and a viability, T/C [16] of 67.2%. It also gave a viability, T/C (second compound 3.16 µM, first compound 0.00316 µM) of 65.8%, a viability, T/C (second compound 3.16 µM, first compound 0.01 µM) of 77.3% and a viability, T/C [17] of 66%. The viability, T/C [18] was 68.9%, the viability, T/C [19] was 70.7% and the viability, T/C [20] was 48.2%. The viability, T/C (second compound 10 µM, first compound 0.00316 µM) was 52.3%, the viability, T/C (second compound 10 µM, first compound 0.01 µM) was 49.5% and the viability, T/C [21] was 52%. For the same molecule, the viability, T/C [22] was 51.3%, the viability, T/C [23] was 52.5% and the viability, T/C [24] was 40.8%.
